EC50 and IC50 data for five compounds are collected here from article PMC11833279, “Versatile Features of an Antibody Mimetic Peptide and Its Variants” (Journal of Peptide Science, 2025).

Like-named read-outs stand apart in the source and are kept apart here. Non-standard residues stand in square brackets, D forms with d. Residues, ends and D or L forms follow the SMILES beside them. *: point of attachment. Biotin = O=C1N[C@H]2[C@H](CS[C@H]2CCCCC(=O)*)N1; Ahx = NCCCCCC(=O)O; βAla = NCCC(=O)O

The test system of one assay is GALV‐RV. Type of assay: cell-based. The note with it: read-out: GALV‐RV transduction enhancing effect EC50; Jurkat cells, GFP‐expressing GALV‐RV, peptide‐virus mix incubated 10 min, GFP by flow cytometry 2 days posttransduction; three independent experiments ± SD. The method, then: For the generation of GFP‐expressing γ‐retroviral vector pseudotyped with the glycoprotein of gibbon ape leukemia virus (GALV‐RV), 800,000 HEK293T cells were initially seeded and cotransfected as previously described using following plasmids:GFP‐expressing Murine leukemia virus (MLV) vector E200 pcmE26‐gfp (1.15 μg), E848 pCsGPpA‐ed (0.95 μg), and GALV glycoprotein (0.4 μg).
For the determination of transduction enhancement of GFP‐expressing GALV‐RV, 50,000 Jurkat cells (ATCC, TIB‐152) were seeded in 180 μL RPMI medium (Gibco, 11875093) supplemented with 10% inactivated fetal calf serum (FCS, Gibco, 10437028), 2 mM L‐glutamine (PAN‐Biotech, P04–80050), 100 U/mL penicillin, and 100 μg/mL streptomycin (PAN‐Biotech, P06–07050). Different concentrations of peptides were 1:1 (v/v) mixed with GALV‐RV (1280 dilution on cells) and incubated for 10 min. Subsequently, 20 μL of the virus‐peptide mix was added to cells, and 2 days posttransduction, GFP‐expression was analyzed by flow cytometry using CytoFlex (Beckmann Coulter), and the evaluation was carried out with FlowJo™ (Version 10.8.1).

The test system of assay [1] is HIV‐1NL4–3. Type of assay: cell-based. The conditions noted are these: CEMx174 SEAP indicator cells, HIV‐1NL4–3, SEAP activity three days after infection; mean and standard error of at least three independent experiments; read-out: HIV‐1 neutralizing activity IC50. The procedure:
The plasmid HIV‐1pBRNL4–3, kindly provided by F. Kirchhoff, Ulm, was propagated in XL‐1 Blue competent cells (Stratagene – an Agilent Technologies Division, Waldbronn, Germany) and transfected into 293 T cells using FuGENE HD (Roche, Mannheim, Germany). After 48 h, supernatants were cleared by filtering through 0.22 μm Millex‐GS units (Millipore, Schwalbach, Germany) and stored in aliquots at −80°C.
The indicator cell line CEMx174, which was kindly provided by R. E. Means and R. C. Desrosiers, contained the gene for the secreted alkaline phosphatase (SEAP) under the control of the simian immunodeficiency virus long terminal repeat. Three days after HIV‐1NL4–3 infection, cell culture supernatants were removed and analyzed for SEAP activity using the Phospha‐Light kit (Life Technologies, Darmstadt, Germany) according to the manufacturer's recommendations. Data represent mean and standard error of at least three independently performed experiments.

The subject of assay [2] is HIV‐1NL4–3. The conditions noted are these: HIV‐1 neutralization; read-out: HIV‐1 neutralizing activity IC50; cited from earlier work. An excerpt: Addressing the significance of the disulfide bridge in H1H3, a linear variant (H1H3s) was generated, in which the two cysteine residues were replaced by serine (see Table 1 for peptide sequences).

For the compound `CC[C@H](C)[C@H](NC(=O)[C@@H](NC(=O)[C@H](Cc1ccccc1)NC(=O)[C@H](CC(N)=O)NC(=O)[C@H](CO)NC(=O)[C@H](Cc1ccccc1)NC(=O)[C@H](CCCNC(=N)N)NC(=O)[C@H](Cc1ccc(O)cc1)NC(=O)CNC(C)=O)C(C)C)C(=O)N[C@@H](Cc1c[nH]cn1)C(=O)N[C@@H](Cc1c[nH]c2ccccc12)C(=O)NCC(=O)NCCC(=O)NCC(=O)NCCCCCC(=O)NCC(=O)N[C@@H](CCCCNC(=O)CCCC[C@@H]1SC[C@@H]2NC(=O)N[C@@H]21)C(=O)NCC(=O)NCCCCCC(=O)N[C@@H](CO)C(=O)N[C@H](C(=O)NCC(=O)N1CCC[C@H]1C(=O)N[C@@H](Cc1ccc(O)cc1)C(=O)N[C@@H](CO)C(=O)N[C@@H](Cc1c[nH]c2ccccc12)C(=O)N[C@@H](CC(=O)O)C(=O)N[C@@H](CCCCN)C(=O)N[C@@H](CO)C(=O)N1CCC[C@H]1C(=O)N[C@@H](CCC(N)=O)C(=O)N[C@@H](CC(=O)O)C(=O)N[C@@H](CC(N)=O)C(=O)N[C@@H](Cc1ccc(O)cc1)C(=O)N[C@@H](CCSC)C(=O)N[C@@H](CC(=O)O)C(=O)N[C@@H](CO)C(N)=O)C(C)C` [H1H3s‐D100^bK] (Ac-GYRFSNFVIHWG[βAla]G[Ahx]GK(Biotin)G[Ahx]SVGPYSWDKSPQDNYMDS-NH2), in the assay with GALV‐RV, the EC50 is 630 ± 40 nM.

Turning to `CC[C@H](C)[C@H](NC(=O)[C@H](NC(=O)[C@H](Cc1ccccc1)NC(=O)[C@@H](CC(N)=O)NC(=O)[C@H](CO)NC(=O)[C@@H](Cc1ccccc1)NC(=O)[C@H](CCCNC(=N)N)NC(=O)[C@@H](Cc1ccc(O)cc1)NC(=O)CNC(C)=O)C(C)C)C(=O)N[C@H](Cc1c[nH]cn1)C(=O)N[C@@H](Cc1c[nH]c2ccccc12)C(=O)NCC(=O)NCCC(=O)NCC(=O)NCCCCCC(=O)NCC(=O)N[C@@H](CCCCNC(=O)CCCC[C@@H]1SC[C@@H]2NC(=O)N[C@@H]21)C(=O)NCC(=O)NCCCCCC(=O)N[C@H](CO)C(=O)N[C@@H](C(=O)NCC(=O)N1CCC[C@@H]1C(=O)N[C@@H](Cc1ccc(O)cc1)C(=O)N[C@H](CO)C(=O)N[C@@H](Cc1c[nH]c2ccccc12)C(=O)N[C@H](CC(=O)O)C(=O)N[C@@H](CC(=O)O)C(=O)N[C@H](CO)C(=O)N1CCC[C@H]1C(=O)N[C@H](CCC(N)=O)C(=O)N[C@@H](CC(=O)O)C(=O)N[C@H](CC(N)=O)C(=O)N[C@@H](Cc1ccc(O)cc1)C(=O)N[C@H](CCSC)C(=O)N[C@@H](CC(=O)O)C(=O)N[C@H](CO)C(N)=O)C(C)C` [H1H3s‐L/D] (Ac-G[dY]R[dF]S[dN]F[dV]I[dH]WG[βAla]G[Ahx]GK(Biotin)G[Ahx][dS][dV]G[dP]Y[dS]W[dD]D[dS]P[dQ]D[dN]Y[dM]D[dS]-NH2), the IC50 in the assay with HIV‐1NL4–3 [1] was above 60000 nM. On the same count and under the same terms, the value for `CC[C@@H](C)[C@@H](NC(=O)[C@H](NC(=O)[C@@H](Cc1ccccc1)NC(=O)[C@@H](CC(N)=O)NC(=O)[C@@H](CO)NC(=O)[C@@H](Cc1ccccc1)NC(=O)[C@@H](CCCNC(=N)N)NC(=O)[C@@H](Cc1ccc(O)cc1)NC(=O)CNC(C)=O)C(C)C)C(=O)N[C@H](Cc1c[nH]cn1)C(=O)N[C@H](Cc1c[nH]c2ccccc12)C(=O)NCC(=O)NCCC(=O)NCC(=O)NCCCCCC(=O)NCC(=O)N[C@H](CCCCNC(=O)CCCC[C@@H]1SC[C@@H]2NC(=O)N[C@@H]21)C(=O)NCC(=O)NCCCCCC(=O)N[C@H](CO)C(=O)N[C@@H](C(=O)NCC(=O)N1CCC[C@@H]1C(=O)N[C@H](Cc1ccc(O)cc1)C(=O)N[C@H](CO)C(=O)N[C@H](Cc1c[nH]c2ccccc12)C(=O)N[C@H](CC(=O)O)C(=O)N[C@H](CC(=O)O)C(=O)N[C@H](CO)C(=O)N1CCC[C@@H]1C(=O)N[C@H](CCC(N)=O)C(=O)N[C@H](CC(=O)O)C(=O)N[C@H](CC(N)=O)C(=O)N[C@H](Cc1ccc(O)cc1)C(=O)N[C@H](CCSC)C(=O)N[C@H](CC(=O)O)C(=O)N[C@H](CO)C(N)=O)C(C)C` [H1H3s‐allD] (Ac-G[dY][dR][dF][dS][dN][dF][dV][dI][dH][dW]G[βAla]G[Ahx]G[dK](Biotin)G[Ahx][dS][dV]G[dP][dY][dS][dW][dD][dD][dS][dP][dQ][dD][dN][dY][dM][dD][dS]-NH2) was 1900 ± 400 nM; that for `CC[C@H](C)[C@H](NC(=O)[C@@H](NC(=O)[C@H](Cc1ccccc1)NC(=O)[C@H](CC(N)=O)NC(=O)[C@H](CO)NC(=O)[C@H](Cc1ccccc1)NC(=O)[C@H](CCCNC(=N)N)NC(=O)[C@H](Cc1ccc(O)cc1)NC(=O)CNC(C)=O)C(C)C)C(=O)N[C@@H](Cc1c[nH]cn1)C(=O)N[C@@H](Cc1c[nH]c2ccccc12)C(=O)NCC(=O)NCCC(=O)NCC(=O)NCCCCCC(=O)NCC(=O)N[C@@H](CCCCNC(=O)CCCC[C@@H]1SC[C@@H]2NC(=O)N[C@@H]21)C(=O)NCC(=O)NCCCCCC(=O)N[C@@H](CO)C(=O)N[C@H](C(=O)NCC(=O)N1CCC[C@H]1C(=O)N[C@@H](Cc1ccc(O)cc1)C(=O)N[C@@H](CO)C(=O)N[C@@H](Cc1c[nH]c2ccccc12)C(=O)N[C@@H](CC(=O)O)C(=O)N[C@@H](CC(=O)O)C(=O)N[C@@H](CO)C(=O)N1CCC[C@H]1C(=O)N[C@@H](CCC(N)=O)C(=O)N[C@@H](CC(=O)O)C(=O)N[C@@H](CC(N)=O)C(=O)N[C@@H](Cc1ccc(O)cc1)C(=O)N[C@@H](CCSC)C(=O)N[C@@H](CC(=O)O)C(=O)N[C@@H](CO)C(N)=O)C(C)C` [Peptide H1H3s] (Ac-GYRFSNFVIHWG[βAla]G[Ahx]GK(Biotin)G[Ahx]SVGPYSWDDSPQDNYMDS-NH2) was 6300 ± 100 nM.

With “Ac‐GYRFSNFVIHW‐GB ^b GX ^c G‐K*‐GX‐[CVGPYSWDDSPQDNYMDC]‐NH2 (disulfide) [Peptide H1H3, b12 paratope mimetic peptide presenting heavy chain CDRs H1 and H3, H3 disulfide‐bridged, biotinylated lysine between them]”, the IC50 in the assay on HIV‐1NL4–3 [2] was 1700 nM.

As usually defined, the EC50 is the midpoint of the concentration-response curve. Broadly, the IC50 is the concentration at which inhibition is half-maximal.
